# Measurements from patent US20230277630A1, “METHODS AND COMPOSITIONS FOR TREATING AMYOTROPHIC LATERAL SCLEROSIS” (Amylyx Pharmaceuticals, Inc., priority 2022, published 2023).
# “And” between values parts separate entries of the source, which are not always exact repeats. Identical values can stand only once. Counter-ions that a name gives are not always drawn.
# Assays:
# [1] = molecular target: T1, OATP1B1 (Homo sapiens, UniProt Q9Y6L6); test: OATP1B1 inhibitor (IC50) assessment, atorvastatin uptake in transfected HEK cells
# T1 sequence (Q9Y6L6 1-691): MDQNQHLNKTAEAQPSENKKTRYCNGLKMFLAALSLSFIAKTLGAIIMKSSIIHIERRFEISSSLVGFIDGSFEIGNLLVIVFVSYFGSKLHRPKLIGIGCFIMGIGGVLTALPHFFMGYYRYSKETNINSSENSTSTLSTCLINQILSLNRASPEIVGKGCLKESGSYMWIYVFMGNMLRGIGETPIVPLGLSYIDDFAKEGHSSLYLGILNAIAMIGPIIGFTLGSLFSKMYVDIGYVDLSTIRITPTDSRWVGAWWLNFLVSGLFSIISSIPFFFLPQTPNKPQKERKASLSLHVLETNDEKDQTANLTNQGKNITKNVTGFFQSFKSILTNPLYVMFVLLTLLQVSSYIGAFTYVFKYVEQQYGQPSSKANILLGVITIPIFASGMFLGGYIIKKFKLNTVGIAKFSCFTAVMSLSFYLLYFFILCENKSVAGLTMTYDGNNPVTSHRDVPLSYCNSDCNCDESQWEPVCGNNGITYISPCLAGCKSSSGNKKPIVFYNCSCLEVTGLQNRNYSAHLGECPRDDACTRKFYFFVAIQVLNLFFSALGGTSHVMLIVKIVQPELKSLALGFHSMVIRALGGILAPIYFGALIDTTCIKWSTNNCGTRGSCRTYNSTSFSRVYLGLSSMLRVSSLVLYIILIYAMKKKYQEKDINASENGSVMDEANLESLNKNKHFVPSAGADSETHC
# [2] = molecular target: T2, OATP1B3 (Homo sapiens, UniProt Q9NPD5); test: OATP1B3 inhibitor (IC50) assessment, atorvastatin uptake in transfected HEK cells
# T2 sequence (Q9NPD5 1-702): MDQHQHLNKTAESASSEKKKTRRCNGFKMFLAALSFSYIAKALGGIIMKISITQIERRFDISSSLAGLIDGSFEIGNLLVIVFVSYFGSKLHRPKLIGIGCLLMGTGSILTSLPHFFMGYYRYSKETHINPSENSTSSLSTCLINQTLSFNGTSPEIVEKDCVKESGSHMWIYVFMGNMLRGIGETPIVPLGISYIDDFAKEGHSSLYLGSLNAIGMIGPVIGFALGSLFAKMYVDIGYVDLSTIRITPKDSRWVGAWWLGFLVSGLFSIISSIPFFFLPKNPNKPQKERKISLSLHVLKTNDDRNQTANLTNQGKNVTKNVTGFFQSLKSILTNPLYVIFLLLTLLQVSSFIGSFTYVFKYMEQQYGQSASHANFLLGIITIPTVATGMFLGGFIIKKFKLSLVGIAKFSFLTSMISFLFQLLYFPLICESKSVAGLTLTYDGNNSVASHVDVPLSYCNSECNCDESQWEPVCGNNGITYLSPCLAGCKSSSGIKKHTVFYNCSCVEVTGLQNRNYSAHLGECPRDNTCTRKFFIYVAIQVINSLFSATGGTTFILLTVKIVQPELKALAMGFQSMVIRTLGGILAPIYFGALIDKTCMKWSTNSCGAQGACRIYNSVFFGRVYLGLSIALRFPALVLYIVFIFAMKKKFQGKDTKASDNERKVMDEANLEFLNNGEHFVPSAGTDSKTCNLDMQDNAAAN
# [3] = rat, in vivo
# [4] = molecular target: CYP2C9 (Homo sapiens, UniProt P11712); test: in vitro; details: microsomes; for % of Control Enzyme Activity: 30 min, pH 7.4
# Sequence of CYP2C9 (P11712 whole entry, canonical isoform): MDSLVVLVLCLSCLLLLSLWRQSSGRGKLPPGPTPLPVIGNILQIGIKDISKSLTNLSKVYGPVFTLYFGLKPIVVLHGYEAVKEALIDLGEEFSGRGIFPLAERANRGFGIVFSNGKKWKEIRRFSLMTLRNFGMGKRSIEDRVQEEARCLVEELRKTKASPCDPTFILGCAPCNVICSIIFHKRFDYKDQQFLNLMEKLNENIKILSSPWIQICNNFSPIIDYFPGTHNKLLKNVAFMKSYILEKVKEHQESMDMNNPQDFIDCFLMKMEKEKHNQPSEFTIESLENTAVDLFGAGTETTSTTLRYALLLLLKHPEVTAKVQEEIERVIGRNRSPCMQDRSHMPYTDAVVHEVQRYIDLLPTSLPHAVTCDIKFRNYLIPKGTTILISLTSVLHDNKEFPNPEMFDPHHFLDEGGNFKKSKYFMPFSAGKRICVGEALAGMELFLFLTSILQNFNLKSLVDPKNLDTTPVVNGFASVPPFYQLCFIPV
# Description: CYP TDI was evaluated by a 30-minute pre-incubation of the TA with HLM in the presence and absence of NADPH followed by the CYP enzyme activity assay. […] The total organic solvent content in the final incubation was less than 1% (DMSO ≤0.1%, other organic solvent ≤1%). The CYP reactions were initiated by adding an individual CYP probe substrate with (when NADPH was not added in the pre-incubation step) or without (when NADPH was added in the pre-incubation step) the addition of NADPH (1 mM). The reaction mixture was incubated at 37° C. for 10-30 minutes depending on the individual CYP isoform (Table 24). The reaction was terminated with ice-cold acetonitrile (ACN) containing an internal standard (IS, stable isotope-labeled CYP probe metabolite). Negative (vehicle) controls were conducted using the incubation mixture without the TA. Positive controls were performed in parallel using known CYP time-dependent inhibitors. […] The formation of individual CYP probe metabolites was determined by LC-MS/MS.
# The enzyme activity was expressed as the peak area ratio of CYP probe metabolite to IS, measured by LC-MS/MS.
# [5] = molecular target: T3, P-gp (Homo sapiens, UniProt P08183); test: P-gp IC50 assessment, bidirectional digoxin transport in C2BBe1 cells
# T3 sequence (P08183 whole entry): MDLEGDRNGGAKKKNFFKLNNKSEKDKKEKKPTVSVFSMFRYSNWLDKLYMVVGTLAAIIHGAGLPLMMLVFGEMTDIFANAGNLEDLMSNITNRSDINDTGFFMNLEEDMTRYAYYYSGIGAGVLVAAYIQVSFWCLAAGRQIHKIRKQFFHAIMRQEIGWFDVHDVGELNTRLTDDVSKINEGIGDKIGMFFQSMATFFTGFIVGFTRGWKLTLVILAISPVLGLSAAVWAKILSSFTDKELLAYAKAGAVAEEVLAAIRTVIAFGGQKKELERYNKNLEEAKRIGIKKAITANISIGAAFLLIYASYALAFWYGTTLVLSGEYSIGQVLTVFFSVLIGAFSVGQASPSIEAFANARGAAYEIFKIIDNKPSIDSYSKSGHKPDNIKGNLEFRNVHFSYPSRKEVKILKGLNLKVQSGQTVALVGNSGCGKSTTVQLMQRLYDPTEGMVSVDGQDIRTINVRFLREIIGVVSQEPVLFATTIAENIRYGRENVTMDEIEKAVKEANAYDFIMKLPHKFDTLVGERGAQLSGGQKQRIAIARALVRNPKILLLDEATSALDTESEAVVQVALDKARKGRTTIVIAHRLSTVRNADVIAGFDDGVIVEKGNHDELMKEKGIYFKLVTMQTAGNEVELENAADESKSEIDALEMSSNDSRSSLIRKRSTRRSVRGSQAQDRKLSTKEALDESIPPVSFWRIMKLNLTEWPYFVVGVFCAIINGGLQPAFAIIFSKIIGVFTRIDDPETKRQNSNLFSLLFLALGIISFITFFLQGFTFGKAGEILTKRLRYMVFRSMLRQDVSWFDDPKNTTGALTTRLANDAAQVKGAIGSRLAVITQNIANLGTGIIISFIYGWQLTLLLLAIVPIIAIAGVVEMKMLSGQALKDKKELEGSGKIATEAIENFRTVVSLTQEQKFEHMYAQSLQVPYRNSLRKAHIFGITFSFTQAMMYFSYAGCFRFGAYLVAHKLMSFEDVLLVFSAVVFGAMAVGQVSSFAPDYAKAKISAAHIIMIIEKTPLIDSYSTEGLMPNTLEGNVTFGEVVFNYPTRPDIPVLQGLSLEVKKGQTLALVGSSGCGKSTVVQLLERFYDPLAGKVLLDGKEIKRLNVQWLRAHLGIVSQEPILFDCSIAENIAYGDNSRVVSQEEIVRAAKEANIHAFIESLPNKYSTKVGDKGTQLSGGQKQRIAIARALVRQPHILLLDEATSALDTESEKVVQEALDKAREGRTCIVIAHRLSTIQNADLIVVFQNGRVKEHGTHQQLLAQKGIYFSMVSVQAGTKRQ
# Description: (§1) After 30 minutes, the pre-incubation solution was aspirated.
# [6] = molecular target: T3, P-gp; test: P-gp IC50 assessment, bidirectional digoxin transport in MDR1-MDCK cells
# [7] = parameters: species or system male Sprague Dawley rats; details: male, Sprague Dawley, rat, in vivo, po
# Description: Total urine recovery data for Tenofovir, TDF, and PB was calculated for the 24 hour collection period on Days 1 and 5. […] The reported urine recovery data included amount recovered (ng) and percent recovered (%) for […]. Individual and mean Tenofovir, TDF, and PB urine recovery data were presented with SD, reported to three significant figures, and CV %, reported to one decimal place.
# [8] = tested on: P-gp and BCRP; test: P-gp and BCRP substrate assessment, bidirectional permeability in C2BBe1 cells; details: for AP-to-BL Papp / BL-to-AP Papp / Papp A→B at 10 µM / Papp B→A at 10 µM: C2BBe1 cells, 10 μM probe; for Papp A→B at 10 µM / recovery at 10 μM / Papp B→A at 10 µM: human; for Papp A→B at 10 µM: Caco-2, pH 7.4, AP-to-BL Papp; for Papp B→A at 10 µM: Caco-2, pH 7.4, BL-to-AP Papp
# Description: The P-gp and BCRP substrate assessment was conducted in C2BBe1 cell monolayers. […] LY was co-dosed with each dosing solution at a nominal concentration of 200 μM.
# The cell culture medium was aspirated, and the cell monolayers were rinsed once with HBSSg_7.4. […] For receiver samples, aliquots (300 μL) were taken at pre-selected time points. […] For donor samples, aliquots (50 μL) were taken at pre-selected time points without replacement.
# [9] = molecular target: T4, BCRP (Homo sapiens, UniProt Q9UNQ0); test: BCRP IC50 assessment, bidirectional cladribine transport in BCRP-MDCK cells; details: BCRP-MDCK cells, 10 μM cladribine alone or + TUDCA/PB Solution or 0.5 μM Ko143; single replicates
# T4 sequence (Q9UNQ0 1-655): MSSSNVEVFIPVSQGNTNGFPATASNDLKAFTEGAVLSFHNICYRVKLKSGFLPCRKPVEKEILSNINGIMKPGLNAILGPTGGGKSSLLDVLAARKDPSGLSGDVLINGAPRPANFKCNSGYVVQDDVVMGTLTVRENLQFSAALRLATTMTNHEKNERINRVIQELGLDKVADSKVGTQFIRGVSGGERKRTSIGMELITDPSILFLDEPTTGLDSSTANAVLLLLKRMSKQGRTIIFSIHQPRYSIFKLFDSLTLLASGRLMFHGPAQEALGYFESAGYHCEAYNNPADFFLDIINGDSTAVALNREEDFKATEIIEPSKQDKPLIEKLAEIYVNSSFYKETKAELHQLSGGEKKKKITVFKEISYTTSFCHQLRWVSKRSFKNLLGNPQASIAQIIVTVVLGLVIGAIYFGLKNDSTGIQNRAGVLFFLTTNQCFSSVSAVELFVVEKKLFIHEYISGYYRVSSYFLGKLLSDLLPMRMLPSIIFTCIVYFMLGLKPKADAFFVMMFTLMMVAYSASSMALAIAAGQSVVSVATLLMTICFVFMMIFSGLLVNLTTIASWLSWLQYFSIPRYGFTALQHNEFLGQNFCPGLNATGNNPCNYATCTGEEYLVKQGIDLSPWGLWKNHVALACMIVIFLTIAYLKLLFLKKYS
# Description: as §1
# [10] = pH 7.4, % of Control Enzyme Activity
# [11] = batch used with Sol_1, Sol_3, and Sol_4, single replicates
# [12] = batch used with Sol_2, single replicates
# [13] = batch used with Sol_1, Sol_3, and Sol_4, Average
smiles,measurement,setting,value
"CO[C@H]1/C=C/O[C@@]2(C)Oc3c(C)c([O-])c4c(O)c(cc(O)c4c3C2=O)NC(=O)/C(C)=C\C=C\[C@H](C)[C@H](O)[C@@H](C)[C@@H](O)[C@@H](C)[C@H](OC(C)=O)[C@@H]1C.[Na+] [RSV, rifamycin SV]",Net Influx Rate of Atorvastatin (OATP1B1),[1]; […] Atorvastatin + 10 μM RSV,0.184 pmol/mg protein/minute
same,Percentage Inhibition of OATP1B1,[1]; […] Atorvastatin + 10 μM RSV,96.7%
same,inhibition of atorvastatin uptake in OATP1B1-transfected cells,[1]; known inhibitor,96.7%
same,Net Influx Rate of Atorvastatin (OATP1B3),[2]; […] Atorvastatin + 10 μM RSV,0.0551 pmol/mgprotein/minute
same,Percentage Inhibition of OATP1B3,[2]; […] Atorvastatin + 10 μM RSV,98.1%
same,inhibition of atorvastatin uptake in OATP1B3-transfected cells,[2]; known inhibitor,98.1%
C[C@H](Cn1cnc2c(N)ncnc21)OCP(=O)(O)O [Tenofovir],individual Tmax,[3],15 min
O=C(O)COc1ccc(C(=O)c2cccs2)c(Cl)c1Cl [Tienilic acid],% of Control Enzyme Activity,[4]; 10 µM,11.7%
same,% of Control Enzyme Activity,[4]; 30 µM,9.64%
same,"activity at 30 min, 10 µM",[4]; [10],22.2%
same,"activity at 30 min, 30 µM",[4]; [10],16.2%
"C/C=C/C[C@@H](C)C(=O)[C@H]1C(=O)N[C@@H](C(C)C)C(=O)N(C)CC(=O)N(C)[C@@H](CC(C)C)C(=O)N[C@@H](C(C)C)C(=O)N(C)[C@@H](CC(C)C)C(=O)N[C@@H](C)C(=O)N[C@H](C)C(=O)N(C)[C@@H](CC(C)C)C(=O)N(C)[C@@H](CC(C)C)C(=O)N(C)[C@@H](C(C)C)C(=O)N1C [valspodar, reference compound]","Percent Inhibition (P-gp, digoxin efflux)","[5]; C2BBe1 cells, 10 μM digoxin + TUDCA/PB Solution or 1 μM valspodar",99.3%
same,inhibition at 1 μM,"[5]; human, pH 7.4",99.3%
same,Percent Inhibition (P-gp),"[6]; 10 μM Digoxin + 1 μM Valspodar, MDR1-MDCK cells",99.9%
same,inhibition at 1 μM,"[6]; human, MDR1-MDCK cell monolayers on Transwell plates, pH 7.4, probe digoxin (10 μM)",99.9%
"CC(C)OC(=O)OCOP(=O)(CO[C@H](C)Cn1cnc2c(N)ncnc21)OCOC(=O)OC(C)C [TDF, Tenofovir Disoproxil Fumarate]",Urine concentrations,[7],"Urine concentrations for PB analysis in all animals on Day 1, for TUDCA analysis in all animals on Days 1 and 5, and for TDF analysis in two animals on Day 1 and one animal on Day 5 were BLQ (<20 ng/mL) so no recovery data was calculated."
Nc1nc(Cl)nc2c1ncn2[C@H]1C[C@H](O)[C@@H](CO)O1 [cladribine],AP-to-BL Papp,[8]; [11],0.549 10^−6 cm/s and 0.580 10^−6 cm/s
same,BL-to-AP Papp,[8]; [11],13.3 10^−6 cm/s and 13.0 10^−6 cm/s
same,AP-to-BL Papp,[8]; [12],0.612 10^−6 cm/s and 0.554 10^−6 cm/s
same,BL-to-AP Papp,[8]; [12],12.4 10^−6 cm/s and 13.1 10^−6 cm/s
same,Papp A→B at 10 µM,[8]; [13],0.5 ×10⁻⁶ cm/s
same,Papp A→B at 10 µM,[8]; [11],0.37 ×10⁻⁶ cm/s
same,Papp A→B at 10 µM,"[8]; batch used with Sol_2, Average",0.648 ×10⁻⁶ cm/s
same,Papp A→B at 10 µM,[8]; [12],0.778 ×10⁻⁶ cm/s
same,recovery at 10 μM,"[8]; Caco-2, pH 7.4, AP-to-BL Recovery",95.3%
same,Papp B→A at 10 µM,[8]; [13],13.5 ×10⁻⁶ cm/s
same,Papp B→A at 10 µM,[8]; [11],14.1 ×10⁻⁶ cm/s
same,Papp B→A at 10 µM,"[8]; batch used with Sol_2, Average",12.8 ×10⁻⁶ cm/s
same,Papp B→A at 10 µM,[8]; [12],12.8 ×10⁻⁶ cm/s
same,recovery at 10 μM,"[8]; Caco-2, pH 7.4, BL-to-AP Recovery",92.9%
same,BL-to-AP Papp of cladribine,[9],15.5 10^−6 cm/s
